Values of other authors as cited in US20180338982A1, “Cooperative Medication Combination Systems” (priority 2017, published 2018).

Details: in vivo

- Half-life: 2 h
SMILES: CCC(C)(C)C(=O)O[C@H]1C[C@@H](C)C=C2C=C[C@H](C)[C@H](CC[C@@H]3C[C@@H](O)CC(=O)O3)[C@H]21 [Simvastatin]
